Format in all cases: cell-based
For one assay, the target named is T1, CDK6 (Homo sapiens, UniProt Q00534).
T1 construct: endogenous in cells
Briefly: CDK6 degradation (DC50, Dmax).

Assay [1] concerns mantle cell lymphoma cell (Mino or JeKo-1). Briefly: Antiproliferative effect, MTS cell viability assay. The settings on record: 72 h, mantle cell lymphoma cell (Mino or JeKo-1), MTS assay, read-out: IC50 (anti-proliferation). How it is done: Antiproliferative effect of the exemplary compounds was assessed in B-cell malignancy models.
To assess the effect of the exemplary compounds on cell viability in B-cell malignancy models by degradation of CDK4/6 proteins, Mino cells were treated with varying concentrations of exemplary compounds (0, 0.0001, 0.001, 0.01, 0.1, 1 μM) or positive control (palbociclib and abemaciclib). Under these conditions, cell viability was determined by an MTS assay. Cytotoxicity was assayed by the determination of reduced tetrazolium (formazan) created by metabolically active cells as detected at 490 nanometers (nm) absorbance using a microplate reader (BMG Labtech, Cary, NC, USA).
The exemplary compounds attenuated the viability of Mino cells in a concentration-dependent manner at 72 h post treatment. Results are shown in Table 1 and FIGS. 2-15 for each exemplary compound.
(In general: Tetrazolium dyes change colour on reduction, which living cells bring about.)

The next assay concerns the target T2, CDK4 (Homo sapiens, UniProt P11802).
T2 construct: endogenous in cells
The assay is described as follows: CDK4 degradation (DC50, Dmax).

Among the data in US20230295118A1 (EnhancedBio Inc., priority 2022, published 2023) are DC50, Dmax and IC50 values, retold here.

T2 sequence (P11802 whole entry): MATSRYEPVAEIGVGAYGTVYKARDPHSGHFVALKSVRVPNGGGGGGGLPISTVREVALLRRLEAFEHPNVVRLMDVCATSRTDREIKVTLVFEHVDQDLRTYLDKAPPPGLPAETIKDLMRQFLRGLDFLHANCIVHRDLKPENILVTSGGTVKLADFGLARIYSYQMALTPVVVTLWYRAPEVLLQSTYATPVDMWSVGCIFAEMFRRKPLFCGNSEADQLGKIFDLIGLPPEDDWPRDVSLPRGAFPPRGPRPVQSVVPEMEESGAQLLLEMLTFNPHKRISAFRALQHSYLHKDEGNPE
T1 sequence (Q00534 whole entry): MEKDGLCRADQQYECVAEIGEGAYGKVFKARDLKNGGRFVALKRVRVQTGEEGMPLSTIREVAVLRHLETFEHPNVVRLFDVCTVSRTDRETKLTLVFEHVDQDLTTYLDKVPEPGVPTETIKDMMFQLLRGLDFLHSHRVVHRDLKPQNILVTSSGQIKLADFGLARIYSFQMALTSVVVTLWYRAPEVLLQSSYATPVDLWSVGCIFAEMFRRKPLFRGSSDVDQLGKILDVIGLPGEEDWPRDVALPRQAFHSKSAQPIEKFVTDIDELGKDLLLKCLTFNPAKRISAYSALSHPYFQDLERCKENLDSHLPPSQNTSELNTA

As a reminder, the DC50 is the concentration giving 50% degradation. A higher DC50 goes with degradation only at high concentration. What is called Dmax is the largest share of the target that was removed. At CDK6, `Cc1nc2c(F)cc(-c3nc(Nc4ccc(CC5CCN(C6CN(c7ccc8c(c7)C(=O)N(C7CCC(=O)NC7=O)C8=O)C6)CC5)cn4)ncc3F)cc2n1C(C)C` (stereo not shown) [Compound 148, 2-(2,6-dioxopiperidin-3-yl)-5-(3-(4-((6-((5-fluoro-4-(4-fluoro-1-isopropyl-2-methyl-1H-benzo[d]imidazol-6-yl)pyrimidin-2-yl)amino)pyridin-3-yl)methyl)piperidin-1-yl)azetidin-1-yl)isoindoline-1,3-dione] yielded a DC50 of 50 to 200 nM and a Dmax of over 60%. In addition, the IC50 in assay [1] lay within 50 to 200 nM. On CDK4, this molecule displayed a DC50 of under 50 nM and a Dmax of over 60%.

At CDK6, `CC(=O)c1c(C)c2cnc(Nc3ccc(N4CCN(C(=O)N5CCC(N6CCN(c7ccc8c(c7)C(=O)N(C7CCC(=O)NC7=O)C8=O)CC6)CC5)CC4)cn3)nc2n(C2CCCC2)c1=O` (stereo not shown) [Compound 3, 5-(4-(1-(4-(6-((6-acetyl-8-cyclopentyl-5-methyl-7-oxo-7,8-dihydropyrido[2,3-d]pyrimidin-2-yl)amino)pyridin-3-yl)piperazine-1-carbonyl)piperidin-4-yl)piperazin-1-yl)-2-(2,6-dioxopiperidin-3-yl)isoindoline-1,3-dione] yielded a DC50 of over 200 nM and a Dmax of over 50%. Further, the IC50 in assay [1] fell in the range of 50 to 200 nM. For the same molecule, on CDK4, the DC50 is over 200 nM and the Dmax was over 50%.

With `CC(=O)c1c(C)c2cnc(Nc3ccc(N4CCN(CC5CCN(C(=O)Nc6ccc7c(c6)C(=O)N(C6CCC(=O)NC6=O)C7=O)CC5)CC4)cn3)nc2n(C2CCCC2)c1=O` (stereo not shown) [Compound 41, 4-((4-(6-((6-acetyl-8-cyclopentyl-5-methyl-7-oxo-7,8-dihydropyrido[2,3-d]pyrimidin-2-yl)amino)pyridin-3-yl)piperazin-1-yl)methyl)-N-(2-(2,6-dioxopiperidin-3-yl)-1,3-dioxoisoindolin-5-yl)piperidine-1-carboxamide], on CDK6, the DC50 lay within 50 to 200 nM and the Dmax was over 80%. Further, the IC50 in assay [1] is under 50 nM. At CDK4, this molecule had a DC50 of under 50 nM and a Dmax of over 80%.

Consider `CC(=O)c1c(C)c2cnc(Nc3ccc(N4CCN(CC5CN(c6ccc(NC7CCC(=O)NC7=O)cc6)C5)CC4)cn3)nc2n(C2CCCC2)c1=O` (stereo not shown) [Compound 120, 3-((4-(3-((4-(6-((6-acetyl-8-cyclopentyl-5-methyl-7-oxo-7,8-dihydropyrido[2,3-d]pyrimidin-2-yl)amino)pyridin-3-yl)piperazin-1-yl)methyl)azetidin-1-yl)phenyl)amino) piperidine-2,6-dione], for which, at CDK6, the DC50 lay in the range of 50 to 200 nM and the maximal degradation (Dmax) is over 80%. Also, in assay [1], the IC50 is under 50 nM. In addition, on CDK4, the DC50 was under 50 nM and the Dmax is over 80%.

At CDK6, `Cc1nc2c(F)cc(-c3nc(Nc4ccc(CN5CCN(C(=O)C6CCN(c7ccc8c(c7)CN(C7CCC(=O)NC7=O)C8=O)CC6)CC5)cn4)ncc3F)cc2n1C(C)C` (stereo not shown) [Compound 154] showed a DC50 of over 200 nM and a Dmax of over 60%. Also, in assay [1], the IC50 lay in the range of 50 to 200 nM. At CDK4, the DC50 is 50 to 200 nM and the Dmax was over 60%.

On CDK6, `CC(=O)c1c(C)c2cnc(Nc3ccc(N4CCN(CCCNc5cc6c(cc5F)C(=O)N(C5CCC(=O)NC5=O)C6)CC4)cn3)nc2n(C2CCCC2)c1=O` (stereo not shown) [Compound 52, 3-(5-((3-(4-(6-((6-acetyl-8-cyclopentyl-5-methyl-7-oxo-7,8-dihydropyrido[2,3-d]pyrimidin-2-yl)amino)pyridin-3-yl)piperazin-1-yl)propyl)amino)-6-fluoro-1-oxoisoindolin-2-yl) piperidine-2,6-dione] gave a DC50 of 50 to 200 nM and a Dmax of over 80%. In addition, the IC50 in assay [1] is under 50 nM. On CDK4, the DC50 lay in the range of 50 to 200 nM and the Dmax was over 80%.

At CDK6, `Cc1nc2c(F)cc(-c3nc(Nc4ccc(CC5CCN(C(=O)C6CCN(c7ccc8c(c7)C(=O)N(C7CCC(=O)NC7=O)C8=O)CC6)CC5)cn4)ncc3F)cc2n1C(C)C` (stereo not shown) [Compound 161, 2-(2,6-dioxopiperidin-3-yl)-5-(4-(4-((6-((5-fluoro-4-(4-fluoro-1-isopropyl-2-methyl-1H-benzo[d]imidazol-6-yl)pyrimidin-2-yl)amino)pyridin-3-yl)methyl)piperidine-1-carbonyl)piperidin-1-yl)isoindoline-1,3-dione] came in with a DC50 of over 200 nM and a Dmax of over 60%. Besides, in assay [1], the IC50 was 50 to 200 nM. At CDK4, this molecule yielded a DC50 of 50 to 200 nM and a Dmax of over 60%.

On CDK6, `CC(=O)c1c(C)c2cnc(Nc3ccc(N4CCN(CC5CCN(C(=O)N6CCC(c7ccc8c(c7)C(=O)N(C7CCC(=O)NC7=O)C8=O)CC6)CC5)CC4)cn3)nc2n(C2CCCC2)c1=O` (stereo not shown) [Compound 33, 5-(1-(4-((4-(6-((6-acetyl-8-cyclopentyl-5-methyl-7-oxo-7,8-dihydropyrido[2,3-d]pyrimidin-2-yl)amino)pyridin-3-yl)piperazin-1-yl)methyl)piperidine-1-carbonyl)piperidin-4-yl)-2-(2,6-dioxopiperidin-3-yl)isoindoline-1,3-dione] displayed a DC50 of over 200 nM and a Dmax of over 50%. Moreover, the IC50 in assay [1] was in the range of 50 to 200 nM. Also, at CDK4, the half-maximal degradation concentration (DC50) was over 200 nM and the Dmax is over 60%.

At CDK6, `CC(=O)c1c(C)c2cnc(Nc3ccc(N4CCN(C5CCN(C(=O)Nc6ccc7c(c6)C(=O)N(C6CCC(=O)NC6=O)C7=O)CC5)CC4)cn3)nc2n(C2CCCC2)c1=O` (stereo not shown) [Compound 39, 4-(4-(6-((6-acetyl-8-cyclopentyl-5-methyl-7-oxo-7,8-dihydropyrido[2,3-d]pyrimidin-2-yl)amino)pyridin-3-yl)piperazin-1-yl)-N-(2-(2,6-dioxopiperidin-3-yl)-1,3-dioxoisoindolin-5-yl)piperidine-1-carboxamide] gave a DC50 of 50 to 200 nM and a Dmax of over 80%. Further, in assay [1], the IC50 was under 50 nM. On CDK4, the DC50 lay in the range of 50 to 200 nM and the Dmax is over 80%.

Regarding `Cc1nc2c(F)cc(-c3nc(Nc4ccc(CN5CCN(C6CN(c7ccc8c(c7)CN(C7CCC(=O)NC7=O)C8=O)C6)CC5)cn4)ncc3F)cc2n1C(C)C` (stereo not shown) [Compound 97, 3-(5-(3-(4-((6-((5-fluoro-4-(4-fluoro-1-isopropyl-2-methyl-1H-benzo[d]imidazol-6-yl)pyrimidin-2-yl)amino)pyridin-3-yl)methyl)piperazin-1-yl)azetidin-1-yl)-1-oxoisoindolin-2-yl)piperidine-2,6-dione], on CDK6, the DC50 was under 50 nM and the Dmax is over 80%. Further, the IC50 in assay [1] is under 50 nM. On CDK4, the DC50 is under 50 nM and the Dmax is over 80%.

Consider `CC(=O)c1c(C)c2cnc(Nc3ccc(N4CCN(CC5CN(c6ccc7c(c6)CN(C6CCC(=O)NC6=O)C7=O)C5)CC4)cn3)nc2n(C2CCCC2)c1=O` (stereo not shown) [Compound 118, 3-(5-(3-((4-(6-((6-acetyl-8-cyclopentyl-5-methyl-7-oxo-7,8-dihydropyrido[2,3-d]pyrimidin-2-yl)amino)pyridin-3-yl)piperazin-1-yl)methyl)azetidio-1-yl)-1-oxoisoindolin-2-yl)piperidine-2,6-dione], for which the DC50 on CDK6 and on CDK4 was under 50 nM throughout. For the same molecule, the Dmax on CDK6 and at CDK4 was over 80% in each case. Moreover, in assay [1], the IC50 was under 50 nM.
